molecular target: T1, TANK-2 enzyme (Homo sapiens, UniProt Q9H2K2); assay: In vitro Scintillation Proximity Assay (SPA) for TANK-2 inhibitory activity; assay type: biochemical; conditions: read-out: in vitro SPA assay TANK-2 pIC50 (converted)
T1 construct: made in house
T1 sequence (Q9H2K2 1-1166): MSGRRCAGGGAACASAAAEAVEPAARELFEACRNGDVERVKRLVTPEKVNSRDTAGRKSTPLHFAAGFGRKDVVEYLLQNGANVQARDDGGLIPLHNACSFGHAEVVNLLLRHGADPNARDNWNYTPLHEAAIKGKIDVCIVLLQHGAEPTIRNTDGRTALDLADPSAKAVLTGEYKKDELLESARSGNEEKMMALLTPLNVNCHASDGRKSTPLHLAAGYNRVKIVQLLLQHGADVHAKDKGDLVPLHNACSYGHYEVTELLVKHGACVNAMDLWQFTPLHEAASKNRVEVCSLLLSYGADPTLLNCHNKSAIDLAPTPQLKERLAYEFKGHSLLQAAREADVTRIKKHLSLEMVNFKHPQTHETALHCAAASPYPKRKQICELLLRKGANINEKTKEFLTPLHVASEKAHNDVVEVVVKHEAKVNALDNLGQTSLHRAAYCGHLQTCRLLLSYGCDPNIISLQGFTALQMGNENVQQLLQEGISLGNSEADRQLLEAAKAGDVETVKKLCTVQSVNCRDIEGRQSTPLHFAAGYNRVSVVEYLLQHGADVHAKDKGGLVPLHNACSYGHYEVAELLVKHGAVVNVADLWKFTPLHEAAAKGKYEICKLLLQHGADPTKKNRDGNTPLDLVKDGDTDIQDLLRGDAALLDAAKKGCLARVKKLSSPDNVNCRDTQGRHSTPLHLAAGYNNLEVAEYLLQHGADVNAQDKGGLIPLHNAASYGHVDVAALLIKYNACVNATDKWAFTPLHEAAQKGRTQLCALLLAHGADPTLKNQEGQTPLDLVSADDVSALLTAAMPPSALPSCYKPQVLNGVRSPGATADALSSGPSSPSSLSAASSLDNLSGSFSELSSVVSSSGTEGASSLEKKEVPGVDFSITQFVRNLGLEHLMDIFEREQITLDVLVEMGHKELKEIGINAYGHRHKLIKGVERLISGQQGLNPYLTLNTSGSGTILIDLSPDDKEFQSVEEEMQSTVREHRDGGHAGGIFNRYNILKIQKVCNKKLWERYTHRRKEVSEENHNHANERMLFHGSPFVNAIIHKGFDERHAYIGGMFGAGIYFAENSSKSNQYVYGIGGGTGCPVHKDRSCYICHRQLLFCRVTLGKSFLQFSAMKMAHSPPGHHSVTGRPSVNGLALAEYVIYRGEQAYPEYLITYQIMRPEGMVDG
In short: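 TANK-2 (8 μg/ml final) auto-poly(ADP-ribosyl)ation with [3H]-NAD+/NAD donor was run in Ni flash plates in Tris/HCl pH 7.4 buffer with DTT and MgCl2, 120 min at room temperature, then stopped with excess NAD and scintillation-counted. Blank-corrected cpm was expressed as % of enzyme control, and IC50 was linearly interpolated and reported as pIC50.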

IC50 [nM] | SMILES
79.4 | CCc1cc2ccc(C(C)(C#N)Cc3cccc(COC)c3)cc2[nH]c1=O (centres unmarked) [Compound 8]
63.1 | CCc1cc2ccc(C(C)(C#N)Cc3cccc(CO)c3)cc2[nH]c1=O (centres unmarked) [Compound 9]
31.6 | CCc1cc2ccc(C(C)(C#N)Cc3cccc(Br)c3)cc2[nH]c1=O (centres unmarked) [Compound 49]
39.8 | CCc1cc2ccc(C(C)(C#N)Cc3cccc(C#N)c3)cc2[nH]c1=O (centres unmarked) [Compound 51]
126 | CCc1cc2ccc(C(C)(C#N)Cc3cccc(CN4CCN(C)CC4)c3)cc2[nH]c1=O (centres unmarked) [Compound 57]
316 | CCc1cc2ccc(C(C)(C#N)Cc3cccc(CN4CCOCC4)c3)cc2[nH]c1=O (centres unmarked) [Compound 58]
79.4 | CCc1cc2ccc(C(C)(C#N)Cc3cccc(CNC)c3)cc2[nH]c1=O (centres unmarked) [Compound 59]
63.1 | CCc1cc2ccc(C(C)(C#N)Cc3cccc(CNCCOC)c3)cc2[nH]c1=O (centres unmarked) [Compound 60]
100 | CCc1cc2ccc(C(C)(C#N)Cc3cccc(CNCCN4CCOCC4)c3)cc2[nH]c1=O (centres unmarked) [Compound 61]
25.1 | CCc1cc2ccc(C(C)(C#N)Cc3cccc(N4CCNCC4)c3)cc2[nH]c1=O (centres unmarked) [Compound 64]
39.8 | CCc1cc2ccc(C(C)(C#N)Cc3cccc(N4CCCCC4)c3)cc2[nH]c1=O (centres unmarked) [Compound 65]
31.6 | CCc1cc2ccc(C(C)(C#N)Cc3cccc(N4CCN(C)CC4)c3)cc2[nH]c1=O (centres unmarked) [Compound 66]
126 | CCc1cc2ccc(C(C)(C#N)Cc3cccc(OCC4CC4)c3)cc2[nH]c1=O (centres unmarked) [Compound 67]
63.1 | CCc1cc2ccc(C(C)(C#N)Cc3cccc(OCCCN4CCOCC4)c3)cc2[nH]c1=O (centres unmarked) [Compound 68]
63.1 | CCc1cc2ccc(C(C)(C#N)Cc3cccc(OCCCN4CCN(C)CC4)c3)cc2[nH]c1=O (centres unmarked) [Compound 69]

The remaining lines, values behind:

SMILES | IC50 [nM]
CCc1cc2ccc([C@](C)(C#N)Cc3ccccc3)cc2[nH]c1=O (single isomer, unassigned) [Compound 45] | 25.1
CCc1cc2ccc([C@@](C)(C#N)Cc3ccccc3)cc2[nH]c1=O (single isomer, unassigned) [Compound 46] | 25.1
CCc1cc2ccc(C(C)(C#N)CC3COc4ccccc4O3)cc2[nH]c1=O (single isomer, unassigned) [Compound 47] | 316
CCc1cc2ccc([C@](C)(C#N)Cc3nc(OC)cc(OC)n3)cc2[nH]c1=O (single isomer, unassigned) [Compound 52] | 200
CCc1cc2ccc([C@@](C)(C#N)Cc3nc(OC)cc(OC)n3)cc2[nH]c1=O (single isomer, unassigned) [Compound 53] | 158
CCc1cc2ccc(C(C)(C#N)Cc3cccc(C#C[Si](C)(C)C)c3)cc2[nH]c1=O (centres unmarked) [Compound 1] | 3980
CCc1cc2ccc(C(C)(C#N)Cc3cccc(CN(C)C)c3)cc2[nH]c1=O (centres unmarked) [Compound 7] | 158
CCc1cc2ccc(C(C#N)(Cc3ccccc3)CC3CC3)cc2[nH]c1=O (centres unmarked) [Compound 28] | 316
CC(C#N)(Cc1ccccc1)c1ccc2cc(CO)c(=O)[nH]c2c1 (centres unmarked) [Compound 40] | 158
CCc1cc2ccc(C(C)(C#N)Cc3c(F)ccc(C)c3F)cc2[nH]c1=O (centres unmarked) [Compound 41] | 79.4
CCc1cc2ccc(C(C)(C#N)Cc3nnsc3Cl)cc2[nH]c1=O (centres unmarked) [Compound 42] | 79.4
CCc1cc2ccc(C(C)(C#N)Cc3nc(OC)cc(OC)n3)cc2[nH]c1=O (centres unmarked) [Compound 43] | 158
CCc1cc2ccc(C(C)(C#N)Cc3ccccc3)cc2[nH]c1=O (centres unmarked) [Compound 44] | 39.8
CCOP(=O)(OCC)c1cccc(CC(C)(C#N)c2ccc3cc(CC)c(=O)[nH]c3c2)c1 (centres unmarked) [Compound 50] | 200
CCc1cc2ccc(C(C)(C#N)CCOc3ccc([N+](=O)[O-])cc3)cc2[nH]c1=O (centres unmarked) [Compound 54] | 158
CCc1cc2ccc(C(C)(C#N)Cc3cccc(C(=O)NCCOC)c3)cc2[nH]c1=O (centres unmarked) [Compound 62] | 79.4
CCc1cc2ccc(C(C)(C#N)Cc3cccc(C(=O)N(C)C)c3)cc2[nH]c1=O (centres unmarked) [Compound 63] | 200

Source: patent US8778966B2, “Quinolinone derivatives as PARP and tank inhibitors” (Janssen Pharmaceutica, NV, priority 2007, dated 2014)
